In paper PMC7927403, “Structure‐based identification of dual ligands at the A2AR and PDE10A with anti‐proliferative effects in lung cancer cell‐lines” (Journal of Cheminformatics, 2021):

Tests used:
PDE10A = target: T1, PDE10A (Homo sapiens, UniProt Q9Y233); test: PDE10A inhibition assay (BPS Bioscience PDE10A assay kit); type: biochemical; conditions: concentration-response at PDE10A
T1 construct: purchased BPS Bioscience, San Diego, CA
Description: 400 pg of purified PDE10A was used per reaction, and the plates were read using a TECAN infinite M200.

A3R = target: T2, A3R (Homo sapiens, UniProt P0DMS8); test: cAMP inhibition in CHO-K1-A3R cells co-stimulated with forskolin; type: cell-based
T2 construct: expressed in transfected cells
T2 sequence (P0DMS8 1-318): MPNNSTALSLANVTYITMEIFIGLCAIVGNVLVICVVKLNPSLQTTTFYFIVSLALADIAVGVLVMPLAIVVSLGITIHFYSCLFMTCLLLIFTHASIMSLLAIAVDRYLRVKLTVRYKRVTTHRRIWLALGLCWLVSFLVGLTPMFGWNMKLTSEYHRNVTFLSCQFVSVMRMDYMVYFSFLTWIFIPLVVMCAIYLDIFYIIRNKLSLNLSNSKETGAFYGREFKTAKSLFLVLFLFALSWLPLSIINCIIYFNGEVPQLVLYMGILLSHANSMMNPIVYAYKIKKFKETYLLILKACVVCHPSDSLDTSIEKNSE

CHO-K1-A2AR cells = test: Proliferation assay (CCK-8) in CHO-K1-A2AR cells; type: cell-based; conditions: for IC50: read-out: pIC50 anti-proliferative effect (converted)
Procedure: (§1) To test the effect of compounds 1–6 upon proliferation, various cell types were seeded onto clear 96-well plates at proper densities for each; CHO-K1 (2000 cells well^− 1), CHO-K1-A2AR (2000 cells well^− 1), H520 (2500 cells well^− 1), H1563 (2500 cells well^− 1), H1792 (2500 cells well^− 1), LK-2 (2500 cells well^− 1). This was done in suitable media, and they were cultured for 24 hours. After the subsequent addition of compounds 1–6 (ranging 316 nM − 100 µM), cells were allowed to grow further for 72 hours. Quantification of changes in cell number was done by adding 5 µl CCK-8 reagent to each well, accompanied by incubation at 37 °C for 1–3 hours. The determination of OD450 was done using a Mithras LB940 micro-plate reader at 450 nm.
(§2) Data analysis was performed using GraphPad Prism 8.2.1 (San Diegeo, CA). […] As for proliferation assays, the normalization of all data was done relative to the responses obtained upon treating cells with 1 % (v/v) DMSO. Subsequently, a three-parameter logistic equation was used for fitting each set of normalized data β-galactosidase or cAMP data, in order to calculate pEC50/pIC50 and Emax values. Also, the fitting of the proliferation data was done using a three-parameter logistic equation constraining the basal value to 100 and the system maximum to the IMax value obtained for compound 2, since it elicited the maximum inhibition of cellular proliferation in all cell types tested. A one-way ANOVA with Dunnett’s post-test, or Student’s t-test was used to assess the statistical significance for all assays, where p < 0.05 was considered to be significant.

CHO-K1 cells = test: Proliferation assay (CCK-8) in CHO-K1 cells; type: cell-based; conditions: for IC50: Cricetulus griseus, CHO-K1, 72 hours, read-out: pIC50 anti-proliferative effect (converted)
Procedure: as §1, §2

LK-2 cells [1] = test: cAMP accumulation in LK-2 cells; type: cell-based; conditions: Homo sapiens
Description: (§3) Fig. 7 Lung squamous cell carcinoma and adenocarcinoma cells display increasing sensitivity to compounds 1, 3–5 in terms of proliferation, dependent upon combined A2AR and PDE10A expression. […] Data represented as a percentage of the cell number present after treatment with 1 % DMSO, ± SEM of 4–8 replicates. (B) Correlation plot for pEC50 of each compounds ability to stimulate cAMP production vs. its pIC50 for inhibiting proliferation. Data represented ± SEM. (C) Proliferation factor (pIC50 x span anti-proliferative Additional file 1: Table S5) calculated for 1, 3–6, CGS21680s and forskolin at LK-2, H520, H1792 and H1563 cells. Bars represent the mean Imax ± SEM, whilst individual data points are shown as a scatter plot.

H520 cells [2] = test: cAMP accumulation in H520 cells; type: cell-based; conditions: Homo sapiens
Description: as §3

H1792 cells [3] = test: cAMP accumulation in H1792 cells; type: cell-based; conditions: Homo sapiens
Description: as §3

H1563 cells [4] = test: cAMP accumulation in H1563 cells; type: cell-based; conditions: Homo sapiens
Description: as §3

LK-2 cells [5] = test: Proliferation assay (CCK-8) in LK-2 cells; type: cell-based, human; conditions: for IC50: Homo sapiens, LK-2, 72 hours, read-out: pIC50 anti-proliferative effect (converted)
Procedure: as §1, §2

H520 cells [6] = test: Proliferation assay (CCK-8) in H520 cells; type: cell-based, human; conditions: for Imax anti-proliferative effect: H520, 10 μM agonist relative to 1% DMSO treatment; for IC50: Homo sapiens, NCI-H520, H520, 72 hours, read-out: pIC50 anti-proliferative effect (converted)
Procedure: as §1, §2

H1792 cells [7] = test: Proliferation assay (CCK-8) in H1792 cells; type: cell-based, human; conditions: for Imax anti-proliferative effect: H1792, 10 μM agonist relative to 1% DMSO treatment; for IC50: Homo sapiens, NCI-H1792, H1792, 72 hours, read-out: pIC50 anti-proliferative effect (converted)
Procedure: as §1, §2

H1563 cells [8] = test: Proliferation assay (CCK-8) in H1563 cells; type: cell-based, human; conditions: for Imax anti-proliferative effect: H1563, 10 μM agonist relative to 1% DMSO treatment; for IC50: Homo sapiens, NCI-H1563, H1563, 72 hours, read-out: pIC50 anti-proliferative effect (converted)
Procedure: as §1, §2

A2AR = tested on: A2AR; design: method as in ChEMBL; conditions: confidence score equal to 9; ref ChEMBL; read-out: IC50 (A2AR antagonist); cited from earlier work
Nluc-A2AR = target: T3, Nluc-A2AR (Homo sapiens, UniProt P29274); test: NanoBRET ligand binding assay, competition with CA200645 in HEK293T cells
T3 construct: expressed in transfected cells; host or cells: HEK293T
T3 sequence (P29274 whole entry): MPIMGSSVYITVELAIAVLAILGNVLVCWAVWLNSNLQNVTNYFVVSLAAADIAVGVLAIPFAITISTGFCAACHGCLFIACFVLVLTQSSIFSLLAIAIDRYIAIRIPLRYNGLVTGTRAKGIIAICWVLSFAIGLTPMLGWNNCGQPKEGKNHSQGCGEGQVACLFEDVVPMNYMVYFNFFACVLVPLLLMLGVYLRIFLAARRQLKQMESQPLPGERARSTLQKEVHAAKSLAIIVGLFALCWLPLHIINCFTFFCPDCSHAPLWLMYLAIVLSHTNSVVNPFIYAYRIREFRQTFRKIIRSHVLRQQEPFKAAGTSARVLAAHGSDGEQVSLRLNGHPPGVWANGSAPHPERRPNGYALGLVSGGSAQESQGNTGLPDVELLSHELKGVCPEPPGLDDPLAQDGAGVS
Description: We sought to validate the docking studies by quantifying the affinity of each compound at the A2AR using a NanoBRET binding assay. In this experiment, we used N-terminally tagged A2AR with Nanoluciferase (Nluc) that will emit bioluminescence in close proximity with the fluorescent probe, CA200645, in the presence of Nluc substrate. Firstly, we determine the affinity constant of CA200645 in our expression system. […] We next extended our studies to use a classical competition binding assay ([43, 44]) where non-fluorescent ligands compete for binding at the Nluc-A2AR with CA200645. […] HEK293T cells were seeded in 6-well plates at density of 10^6 cells/well and grown overnight at 37 °C in DMEM/F12 medium supplemented with 10 % FBS and 1 % antibiotic/antimycotic. […]
For association-dissociation kinetic experiments, following furimazine incubation, 40 nM of CA200645 (purchased from Hello Bio, Bristol, UK) was added and the plate was immediately read. […] BRET signal was recorded for either 50 minutes or 20 minutes, for kinetic experiments or competition assay as appropriate, on a Mithras LB940 plate reader allowing sequential integration of signal detected from fluorescent probe CA200645 and Nluc. […] Ligand-induced ΔBRET was used to construct the association-dissociation kinetic of the fluorescence probe and competition binding curve of unlabelled ligands. […]

T1 sequence (Q9Y233 1-779 isoform Q9Y233-1): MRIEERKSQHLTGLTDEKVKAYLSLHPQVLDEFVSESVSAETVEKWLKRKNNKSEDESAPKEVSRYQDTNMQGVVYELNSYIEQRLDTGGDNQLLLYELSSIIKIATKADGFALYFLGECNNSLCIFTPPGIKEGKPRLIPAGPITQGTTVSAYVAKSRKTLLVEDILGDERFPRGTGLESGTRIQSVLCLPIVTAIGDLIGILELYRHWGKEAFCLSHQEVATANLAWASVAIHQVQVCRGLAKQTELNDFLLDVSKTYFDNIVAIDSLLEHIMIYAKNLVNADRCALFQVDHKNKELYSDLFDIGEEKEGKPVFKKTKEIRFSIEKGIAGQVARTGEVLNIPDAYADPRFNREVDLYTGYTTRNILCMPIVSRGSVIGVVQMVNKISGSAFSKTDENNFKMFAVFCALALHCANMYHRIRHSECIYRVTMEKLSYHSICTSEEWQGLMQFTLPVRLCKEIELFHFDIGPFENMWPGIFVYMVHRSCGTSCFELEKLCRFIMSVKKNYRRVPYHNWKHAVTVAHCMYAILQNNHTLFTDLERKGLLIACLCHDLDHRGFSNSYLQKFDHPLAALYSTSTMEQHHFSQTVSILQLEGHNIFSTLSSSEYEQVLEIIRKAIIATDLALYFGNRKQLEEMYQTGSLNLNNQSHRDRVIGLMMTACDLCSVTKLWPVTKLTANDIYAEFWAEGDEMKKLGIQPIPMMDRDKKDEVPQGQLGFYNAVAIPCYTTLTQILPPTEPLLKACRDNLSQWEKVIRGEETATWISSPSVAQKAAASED

For CCNC(=O)[C@H]1O[C@@H](n2cnc3c(N)nc(NCCc4ccc(CCC(=O)O)cc4)nc32)[C@H](O)[C@@H]1O [CGS21680], the “activity at PDE10A” value (PDE10A) was “no significant activity”, the “A3R functional activity” value (A3R) was “agonist activity” and the IC50 (CHO-K1-A2AR cells; CHO-K1-A2AR, 72 hours) was > 100 µM. The “anti-proliferative effect” value (CHO-K1-A2AR cells; CHO-K1 and CHO-K1-A2AR cells, 72 hours, CCK-8) was “no anti-proliferative effects”, the IC50 (CHO-K1 cells) was > 100 µM and the EC50 (LK-2 cells [1]; 0.5 h, LK-2, 30 minutes, read-out: pEC50 cAMP accumulation (converted)) was 14.5 µM. The Emax (LK-2 cells [1]; LK-2, percentage of 100 μM forskolin) was 7.64 ± 1.6%, the EC50 (H520 cells [2]; NCI-H520, 0.5 h, H520, 30 minutes, read-out: pEC50 cAMP accumulation (converted)) was 3.31 µM and the Emax (H520 cells [2]; NCI-H520, H520, percentage of 100 μM forskolin) was 20.8 ± 1%. It also gave an EC50 (H1792 cells [3]; NCI-H1792, 0.5 h, H1792, 30 minutes, read-out: pEC50 cAMP accumulation (converted)) of 3.02 µM, an Emax (H1792 cells [3]; NCI-H1792, H1792, percentage of 100 μM forskolin) of 27.3 ± 2.1% and an EC50 (H1563 cells [4]; NCI-H1563, 0.5 h, H1563, 30 minutes, read-out: pEC50 cAMP accumulation (converted)) of 4.57 µM. For the same molecule, the Emax (H1563 cells [4]; NCI-H1563, H1563, percentage of 100 μM forskolin) was 15.6 ± 1.6%, the IC50 (LK-2 cells [5]) was > 100 µM and the Imax anti-proliferative effect (LK-2 cells [5]; LK-2, 10 μM agonist relative to 1% DMSO treatment) was -3.55±2.6%. For the same molecule, the Imax anti-proliferative effect (H520 cells [6]) was 0.55±2.0 %, the IC50 (H520 cells [6]) was > 100 µM and the Imax anti-proliferative effect (H1792 cells [7]) was -4.07±1.6 %. For the same molecule, the IC50 (H1792 cells [7]) was > 100 µM, the Imax anti-proliferative effect (H1563 cells [8]) was 18.87±1.8 % and the IC50 (H1563 cells [8]) was 214 µM.
In the case of COc1ccccc1Cn1cc2nc(-c3ccc(C)o3)nc(N)c2n1 [CHEMBL3799351], the IC50 (A2AR) is given as 0.00435 µM.
With C=C[C@@]1(C)CC(=O)[C@]2(O)[C@@]3(C)[C@@H](O)CCC(C)(C)[C@@H]3[C@H](O)[C@H](OC(C)=O)[C@@]2(C)O1 [Forskolin] the IC50 (CHO-K1-A2AR cells; CHO-K1-A2AR, 72 hours) was 37.2 µM, the Imax anti-proliferative effect (CHO-K1-A2AR cells; CHO-K1-A2AR, 10 μM agonist relative to 1% DMSO treatment) was 58.96±2.2 and the “Δ Imax” value (CHO-K1-A2AR cells; Imax (CHO-K1-A2AR) - Imax (CHO-K1)) was -3.61±4.1. For the same molecule, the “Δ pIC50” value (CHO-K1-A2AR cells; pIC50(CHO-K1-A2AR) - pIC50(CHO-K1)) was -0.03±0.1, the Imax anti-proliferative effect (CHO-K1 cells; CHO-K1, 10 μM agonist relative to 1% DMSO treatment) was 62.57±3.4 and the IC50 (CHO-K1 cells) was 34.7 µM. It also gave an IC50 (LK-2 cells [5]) of 324 µM, an Imax anti-proliferative effect (H520 cells [6]) of 31.2±2.1 % and an IC50 (H520 cells [6]) of 85.1 µM. The Imax anti-proliferative effect (H1792 cells [7]) was 25.9±1.0 %, the IC50 (H1792 cells [7]) was 186 µM and the Imax anti-proliferative effect (H1563 cells [8]) was 29.9±1.1 %. For the same molecule, the IC50 (H1563 cells [8]) was 148 µM.
For CC(C)NCC(O)c1ccc(O)c(O)c1 (stereo not shown) [isoprenaline], the “displacement of CA200645” value (Nluc-A2AR; competition with 300 nM CA200645) was “failed to displace CA200645”.
With CA200645 the “disassociation constant (KD) of CA200645 at the Nluc-A2AR” value (Nluc-A2AR; kinetic association then dissociation, 40 nM CA200645, HEK293 cells) was 0.065 µM.
